The values that follow come from PMC11109052, “Metabolism characterization and toxicity of N-hydap, a marine candidate drug for lung cancer therapy by LC–MS method” (Natural Products and Bioprospecting, 2024).

One data set relates to HKMs. Put plainly: Kinetics of N-hydap glucuronidation in HKMs. The note with it: HKM. The class given is in vitro ADME, human. The method, then:
Various microsomes including HLMs, HKMs, HIMs, RLMs, RKMs, MLMs and MKMs were involved in CYP and UGT reactions of N-hydap. A typical CYP incubation mixture included 0.5 mg/mL microsomes protein, 3.3 mM glucose-6-phosphate, 3.3 mM MgCl2, 0.4 U/mL glucose-6-phosphate dehydrogenase, and N-hydap (1, 2.5, or 10 μM) in the 50 mM potassium phosphate buffer (KPI, pH 7.4). The incubation mixture was preincubated at 37 °C for 5 min, and the reaction was started by adding NADP to form a NADPH-regenerating system. Simultaneously, the classic UGT reaction system consisted of 50 mM KPI, 5 mM MgCl2, 0.5 mg/mL microsomes, 0.125 mg/mL alamethicin, and 5.25 mg/mL saccharolactone. The reaction was initiated after supplying UDPGA. The CYP and UGT mixtures were incubated at 37 °C in a shaking water bath (80 rpm) for 1.5 h to enhance metabolite formation. To terminate the reaction, an ice-cold solution of Tes (50 ng/mL, dissolved in methanol and used as an internal standard) was added to half of the mixture volume. […]
(§1) The substrate concentrations used for HLMs were 0.05, 0.5, 2, 2.5, 5, 10, 25, 50, and 100 μM. […] The rates of N-hydap-G by enzymes were expressed as nmol/mg/min, representing the amount of metabolites formed per minute per milligram of protein. Kinetic parameters were determined by analyzing the Eadie–Hofstee plots. […]

In a further data set the test system is MLMs. Kind of data set: Kinetics of N-hydap glucuronidation in MLMs. In kind it is in vitro ADME, mouse. The note with it: MLM. The method, then:
In this study, the rats were executed by drawing blood from the abdominal aorta and mice were sacrificed with cervical dislocation before the liver and kidneys were excised. The liver and kidneys were removed, and washed with chilled cleansing solution (contains 8 mM KH2PO4, 5.6 mM EDTA·K2·2H2O, 1 mM DTT and 229.6 μM PMSF), homogenized in a tissue homogenate buffer with a pH of 7.4, (consisting of […], 8 mM K2HPO4, 250 mM sucrose, 1 mM EDTA·K2·2H2O and 229.6 μM PMSF). Subsequently, the homogenate was centrifuged at 10,400 rpm at 4 °C for 15 min, and the supernatant was then centrifuged at 35,000 rpm at 4 °C for 60 min. A 250 mM sucrose buffer was added to the pellet to reconstitute and the resuspension was stored at − 80 °C until use. Microsome protein concentrations were measured by Omni-Easy™ Instant BCA Protein Assay Kit.
Various microsomes including HLMs, HKMs, HIMs, RLMs, RKMs, MLMs and MKMs were involved in CYP and UGT reactions of N-hydap. […]
as §1

Another data set deals with Cyp1a2. Kind of data set: DME activity ex vivo in MLMs and MKMs: CYP1A2 (APAP from PH). Further details: species or system mice; key to CYP1A2 Enzymatic activity: ↑: up-regulation; ↓: down-regulation; –: no change. The method, then:
(§2) Mice were randomly divided into four groups, with eight animals in each group. The mice received oral pretreatment with N-hydap for 7 days at doses of 2, 5, and 10 mg/kg/day, which were considered as the low dose, medium dose, and high dose, respectively. Correspondingly, the control group received PBS. On the 8th day, the liver and kidneys were removed, and organs from eight mice per group were combined to prepare MLMs and MKMs using the detailed procedures above. Subsequently, we determined the activity of CYP and UGT enzymes by specific substrate metabolized with MLMs (0.5 mg/mL) and MKMs (0.2 mg/mL) in vitro. Specifically, the following selective substrates were used for the respective enzymes: PH (1 μM) for CYP1A2, DIC (1 μM) for CYP2C9, MP (90 μM) for CYP2C19, DM (1 μM) for CYP2D6, CZX (10 μM) for CYP2E1, Tes (1 μM) for CYP3A4, SN38 (1 μM) for UGT1A1, CACD (100 μM) for UGT1A3, Sero (20 μM) for UGT1A6, and Prop (1 μM) for UGT1A9. All substrates were dissolved in methanol or DMSO. The incubation procedure was carried out as mentioned above, and the reaction was terminated with VER (20 ng/mL) in ESI+ mode and CLP (200 ng/mL) in ESI− mode. In the ex vivo experiments, the activity of enzymes was measured by quantifying the production of various metabolites (nM/mg protein/min). The metabolites and their corresponding enzymes are as follows: APAP from PH, 4-OH-DIC from DIC, 4-OH-MP from MP, DXO from DM, 6-OH-CZX from CZX, 6-OH-Tes from Tes, SN38-G from SN38, CACD-G from CACD, Sero-G from Sero, Prop-G from Prop. The measurements were performed using multiple reaction monitoring (MRM) transitions, which are specific mass spectrometry transitions used for quantification. The optimized parameters for each metabolite, such as declustering potential and collision energy, were described in Supplementary Table 1. All experiments were conducted in triplicate, to ensure accuracy and reproducibility.

The subject of another data set is CYP2C19. Kind of data set: DME activity ex vivo in MLMs and MKMs: CYP2C19 (4-OH-MP from MP). Further details: species or system mice; key to CYP2C19 Enzymatic activity: ↑: up-regulation; ↓: down-regulation; –: no change. The method, then: as §2
The nature of another data set: Stability in plasma. The class given is in vitro ADME. As for the experimental part:
The stability of the KPI solution was examined after storage at 4 °C for 24 h and incubation at 37 °C for 4 h, which was conducted using the QC samples at three concentrations (five samples for each concentration). Stability in plasma and tissue homogenate was assessed by testing samples stored at both 4 °C and room temperature for 24 h.

As to `CC1CCC2C(C=CC(C)C2C(=O)c2c(O)c(C3(O)CCC(O)C4OC43)cn(O)c2=O)C1` (centres unmarked) [N-hydap, N-Hydroxyapiosporamide], the Km in the data set with HKMs was determined as 240 µM; with MLMs, 263 µM. For the same compound, the “CYP1A2 Enzymatic activity” value with Cyp1a2 (Kidney) is “↑”; in the data set with Cyp1a2 (Liver), “–”. Besides, the “elevation of formation rate of APAP” value in the data set with Cyp1a2 (MKMs, range stated jointly for APAP, SN38-G, 6-OH-Tes and CDCA-G) is given as 12%-331%. In addition, the “CYP2C19 Enzymatic activity” value is “–” with CYP2C19 (Kidney) and “↓” with CYP2C19 (Liver). Further, in the data set on CYP2C19 (liver microsomes of mice pretreated 7 days p.o.), the “reduction of formation rate of 4-OH-MP vs control” value is 33%. Further, the “stability, Accuracy (Bias, %)” value came out at 113.9% in “Stability in plasma” (200 nM, 4℃ for 24h); 101.9% in the data set “Stability in plasma” (200 nM, room temperature for 24h); 87.98% in the data set “Stability in plasma” (600 nM, 4℃ for 24h); 105.23% in the data set “Stability in plasma” (600 nM, room temperature for 24h); 91.36% in the data set “Stability in plasma” (2500 nM, 4℃ for 24h); 108.04% in the data set “Stability in plasma” (2500 nM, room temperature for 24h).
